Results reported in patent US11958887B2, “Gene therapy for tuberous sclerosis” (The General Hospital Corporation, priority 2017, dated 2024).

Test system: Tsc2^c/c mice injected ICV with AAV1-CBA-Cre
Experiment: Survival of Tsc2^c/c mice lacking tuberin (AAV1-CBA-Cre ICV) after treatment
Format: in vivo
Conditions: AAV1-CBA-Cre ICV at P0; no cTuberin vector; vigabatrin 200 mg/kg
Experimental: Experimental research protocols were approved by the Institutional Animal Care and Use Committee (IACUC) for the Massachusetts General Hospital (MGH) following the guidelines of the National Institutes of Health for the Care and Use of Laboratory Animals. Experiments were performed on Tsc2^c/c floxed mice (Onda et al., J. Clin. Invest. 104(6):687-695, 1999). In response to Cre recombinase, the Tsc2^c/c alleles are converted to null alleles, and the lacZallele expresses β-galactosidase. These mice have a normal, healthy lifespan.
For vector injections, on the day of birth (postnatal day 0 (P0)) or on P3, neonates were cryo-anesthetized and injected with 1 μl or 2 μl of viral vector AAV1-CBA-Cre into each cerebral lateral ventricle with a glass micropipette ([…] diameter at the tip) using a Narishige® IM300 microinjector at a rate of 2.4 psi/sec (Narshige International, East Meadow, NY). Mice were then placed on a warming pad and returned to their mothers after regaining normal color and full activity typical of newborn mice.
At 3 weeks of age (P21) mice were anesthetized by isoflurane inhalation (3.5% isoflurane in an induction chamber, then maintained anesthetized with 2-3% isoflurane and 1-2 liter/min oxygen for the duration of the experiment). […]

`C=CC(N)CCC(=O)O` (stereo not shown) [vigabatrin] showed a median survival of 27 days.
